Structures can show the parent of a compound that is named as a salt.
What follows are molecules tested against RIPK1 (recombinant GST-RIPK1 kinase domain, residues 1-327) (Homo sapiens (Human), UniProt Q13546) (assay: RIPK1-ADP-Glo Enzymatic Assay). Details: ADP-Glo; 25 nM GST-RIPK1, 300 μM ATP; assay lower limit ~25 nM; read-out: RIPK1 V0 Ec50.
Type: biochemical
In short: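 Using dephosphorylated MBP (3 μM) as substrate and 300 μM ATP, 25 nM baculovirus-produced enzyme was reacted for 150 min after a 30-min compound pre-incubation. Luminescent ADP detection followed; lower confidence limit ~25 nM.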

RIPK1 (recombinant GST-RIPK1 kinase domain, residues 1-327), sequence (Q13546 1-327): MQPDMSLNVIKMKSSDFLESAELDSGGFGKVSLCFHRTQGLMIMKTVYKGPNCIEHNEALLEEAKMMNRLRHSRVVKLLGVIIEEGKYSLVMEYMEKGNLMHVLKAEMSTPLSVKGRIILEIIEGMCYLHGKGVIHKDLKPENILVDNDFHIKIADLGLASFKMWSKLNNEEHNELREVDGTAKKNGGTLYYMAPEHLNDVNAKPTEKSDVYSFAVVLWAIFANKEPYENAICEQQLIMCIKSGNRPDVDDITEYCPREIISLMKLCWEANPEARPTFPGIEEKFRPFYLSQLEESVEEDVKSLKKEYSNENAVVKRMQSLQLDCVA

Row | SMILES | EC50 [nM]
1 | O=C1N2[C@@H](CC[C@H]2c2ccccc2)OC12CCN(c1cc(CF)ncn1)CC2 [Example 4.203, (5′S,7a′R)-1-[6-(fluoromethyl)pyrimidin-4-yl]-5′-phenyltetrahydro-3′H-spiro[piperidine-4,2′-pyrrolo[2,1-b] [1,3]oxazol]-3′-one] | 48
2 | O=C(c1coc(Cl)n1)N1CCC2(CC1)O[C@@H]1CC[C@@H](c3cccc(F)c3)N1C2=O [Example 6.127, (5′S,7a′R)-1-(2-chloro-1,3-oxazole-4-carbon-yl)-5′-(3-fluorophenyl)-tetrahydro-3′H-spiro [piperidine-4,2′-pyrrolo[2,1-b][1,3]oxazol]-3′-one] | 60.8
3 | N#Cc1cccc(C(=O)N2CCC3(CC2)O[C@@H]2CC[C@@H](c4cc(F)cc(F)c4)N2C3=O)c1F [Example 6.33, 3-[(5′S,7a′R)-5′-(3,5-difluorophenyl)-3′-oxotetrahydro-1H,3′H-spiro[piperidine-4,2′-pyrrolo[2,1-b][1,3]oxazole]-1-carbonyl]-2-fluorobenzonitrile] | 40.2
4 | O=C1N2[C@@H](CC[C@H]2c2cc(F)cc(F)c2)OC12CCN(c1ccnc3ncnn13)CC2 [Example 4.83, (5′S,7a′R)-1-([1,2,4]triazolo[1,5-a]pyrimidin-7-yl)-5′-(3,5-difluorophenyl)tetrahydro-3′H-spiro[piperidine-4,2′-pyrrolo[2,1-b]oxazol]-3′-one, TFA salt] | 363
5 | O=C1N2[C@@H](CC[C@H]2c2cc(F)cc(F)c2)OC12CCN(c1ncc(F)cn1)CC2 [Example 4.67, (5′S,7a′R)-5′-(3,5-difluorophenyl)-1-(5-fluoropyrimidin-2-yl)tetrahydro-3′H-spiro[piperidine-4,2′-pyrrolo[2,1-b] [1,3]oxazol]-3′-one] | 89.2
6 | COc1cccc([C@@H]2CC[C@H]3OC4(CCN(c5cc(C#N)ncn5)CC4)C(=O)N32)c1 [Example 20.3, 6-[(5′S,7a′R)-5′-(3-methoxyphenyl)-3′-oxotetrahydro-1H,3′H-spiro[piperidine-4,2′-pyrrolo[2,1-b][1,3]oxazol]-1-yl]pyrimidine-4-carbonitrile] | 394
7 | Cc1cncc(C(=O)N2CCC3(CC2)O[C@@H]2CC[C@@H](c4cc(F)cc(F)c4)N2C3=O)c1 [Example 6.59, (5′S,7a′R)-5'-(3,5-difluorophenyl)-1-(5-methylpyridine-3-carbonyl)tetrahydro-3′H-spiro[piperidine-4,2′-pyrrolo[2,1-b] [1,3]oxazol]-3′-one] | 281
8 | O=C(c1ccccc1)N1CC2(C1)O[C@@H]1CC[C@@H](c3ccccc3F)N1C2=O [Example 1.19, (5′S,7a′R)-1-benzoyl-5′-(2-fluorophenyl)tetrahydro-3′H-spiro[azetidine-3,2′-pyrrolo[2,1-b]oxazol]-3′-one] | 82.9
9 | O=C1N2[C@@H](CC[C@H]2c2cc(F)cc(F)c2)OC12CN(c1cccc3ncnn13)C2 [Example 4.135, (5′S,7a′R)-5′-(3,5-difluorophenyl)-1-([1,2,4]triazolo[1,5-a]pyridin-5-yl)tetrahydro-3′H-spiro[azetidine-3,2′-pyrrolo[2,1-b] [1,3]oxazol]-3′-one] | 63.7
10 | Cc1ncc([C@@H]2CC[C@H]3OC4(CCN(C(=O)c5ccccc5)CC4)C(=O)N32)cc1F [Example 2.1, (5′S,7a′R)-1-benzoyl-5′-(5-fluoro-6-methylpyridin-3-yl)tetrahydro-3′H-spiro[piperidine-4,2′-pyrrolo[2,1-b]oxazol]-3′-one, TFA salt.] | 76.5
11 | Cc1ccccc1[C@@H]1CC[C@H]2OC3(CCN(C(=O)c4ccccc4)CC3)C(=O)N21 [Example 6.135, (5′S,7a′R)-1-(benzene-carbonyl)-5′-(2-meth-ylphenyl)tetrahydro-3′H-spiro[piperidine-4,2′-pyrrolo[2,1-b] [1,3]oxazol]-3′-one] | 457

Now those with a lower EC50, led by results:

Row | EC50 [nM] | SMILES
12 | < 25 | O=C1N2[C@@H](CC[C@H]2c2ccccc2)OC12CCN(c1cc(F)ccn1)CC2 [Example 4.14, (5′S,7a′R)-1-(4-fluoropyridin-2-yl)-5′-phenyltetrahydro-3′H-spiro[piperidine-4,2′-pyrrolo[2,1-b] [1,3]oxazol]-3′-one]
13 | < 25 | N#Cc1cnc(N2CCC3(CC2)O[C@@H]2CC[C@@H](c4ccccc4F)N2C3=O)n2ncnc12 [Example 4.242, 5-[(5′S,7a′R)-5′-(2-fluorophenyl)-3′-oxotetrahydro-1H,3′H-spiro[piperidine-4,2′-pyrrolo[2,1-b] [1,3]oxazol]-1-yl] [1,2,4]triazolo[1,5-c] pyrimidine-8-carbonitrile]
14 | < 25 | N#Cc1ccc(N2CCC3(CC2)O[C@@H]2CC[C@@H](c4cncc(F)c4)N2C3=O)n2nccc12 [Example 14.3, 7-((5′S,7a′R)-5′-(5-fluoropyridin-3-yl)-3′-oxotetrahydro-3′H-spiro[piperidine-4,2′-pyrrolo[2,1-b]oxazol]-1-yl)pyrazolo[1,5-a]pyridine-4-carbonitrile]
15 | < 25 | N#Cc1nccc(N2CCC3(CC2)O[C@@H]2CC[C@@H](c4cc(F)cc(F)c4)N2C3=O)n1 [Example 4.5, 4-[(5′S,7a′R)-5′-(3,5-difluorophenyl)-3′-oxotetrahydro-1H,3′H-spiro[piperidine-4,2′-pyrrolo[2,1-b] [1,3]oxazol]-1-yl]pyrimidine-2-carbonitrile]
16 | < 25 | N#Cc1ccc(N2CCC3(CC2)O[C@@H]2CC[C@@H](c4cc(F)cc(F)c4)N2C3=O)nc1 [Example 4.44, 6-[(5′S,7a′R)-5′-(3,5-difluorophenyl)-3′-oxotetrahydro-1H,3′H-spiro[piperidine-4,2′-pyrrolo[2,1-b] [1,3]oxazol]-1-yl]pyridine-3-carbonitrile]
17 | < 25 | O=C(c1c(F)cccc1F)N1CCC2(CC1)O[C@@H]1CC[C@@H](c3cc(F)cc(F)c3)N1C2=O [Example 5.56, (5′S,7a′R)-1-(2,6-difluoro-benzoyl)-5′-(3,5-difluoro-phenyl)tetrahydro-3′H-spiro[piperidine-4,2′-pyrrolo[2,1-b]oxazol]-3'-one]
18 | < 25 | CC1CN(c2cccc3ncnn23)CCC12O[C@@H]1CC[C@@H](c3ccccc3)N1C2=O (stereo partly drawn) [Example 4.245, (4R,5′S,7a′R)-3-methyl-5′-phenyl-1-([1,2,4]triazolo[1,5-a]pyridin-5-yl)tetrahydro-3′H-spiro[piperidine-4,2′-pyrrolo[2,1-b] [1,3]oxazol]-3′-one]
19 | < 25 | COc1ccc(F)c(C(=O)N2CCC3(CC2)O[C@@H]2CC[C@@H](c4ccccc4)N2C3=O)c1 [Example 6.149, (5′S,7a′R)-1-(2-fluoro-5-methoxybenzene-1-carbonyl)-5′-phenyl-tetrahydro-3′H-spiro [piperidine-4,2′-pyrrolo[2,1-b][1,3]oxazol]-3′-one]
20 | < 25 | O=C1N2[C@@H](CC[C@H]2c2cc(F)cc(F)c2)OC12CCN(c1ccnn3ccnc13)CC2 [Example 13.3, (5′S,7a′R)-5′-(3,5-difluorophenyl)-1-(imidazo[1,2-b]pyridazin-8-yl)tetrahydro-3′H-spiro[piperidine-4,2′-pyrrolo[2,1-b]oxazol]-3′-one, TFA salt]
21 | < 25 | O=C1N2[C@@H](CC[C@H]2c2ccccc2F)OC12CCN(c1ccnc3c(F)cnn13)CC2 [Example 4.102, (5′S,7a′R)-5′-(2-fluorophenyl)-1-(3-fluoropyrazolo[1,5-a]pyrimidin-7-yl)tetrahydro-3′H-spiro[piperidine-4,2′-pyrrolo[2,1-b]oxazol]-3′-one]
22 | 25.1 | COc1cccc(C(=O)N2CCC3(CC2)O[C@@H]2CC[C@@H](c4cc(F)cc(F)c4)N2C3=O)n1 [Example 6.12, (5′S,7a′R)-5′-(3,5-difluorophenyl)-1-(6-methoxypyridine-2-carbonyl)tetrahydro-3′H-spiro[piperidine-4,2′-pyrrolo[2,1-b] [1,3]oxazol]-3′-one]
23 | < 25 | CC1CN(C(=O)c2ccccc2)CCC12O[C@@H]1CC[C@@H](c3cc(F)cc(F)c3)N1C2=O (single isomer, unassigned) [Example 2.4, (3[R or S],4[R or S], 5′S,7a′R)-1-benzoyl-5′-(3,5-difluorophenyl)-3-methyltetrahydro-3′H-spiro[piperidine-4,2′-pyrrolo[2,1-b]oxazol]-3′-one]
24 | < 25 | CCOc1cccc(C(=O)N2CCC3(CC2)O[C@@H]2CC[C@@H](c4ccccc4)N2C3=O)c1 [Example 6.139, (5′S,7a′R)-1-(3-ethoxybenzene-1-carbonyl)-5′-phenyl-tetrahydro-3′H-spiro [piperidine-4,2′-pyrrolo[2,1-b][1,3]-oxazol]-3′-one]
25 | < 25 | O=C(c1nsnc1Cl)N1CCC2(CC1)O[C@@H]1CC[C@@H](c3cc(F)cc(F)c3)N1C2=O [Example 6.19, (5′S,7a′R)-1-(4-chloro-1,2,5-thiadi-azole-3-carbonyl)-5′-(3,5-difluorophenyl)-tetrahydro-3′H-spiro [piperidine-4,2′-pyrrolo[2,1-b][1,3]oxazol]-3′-one]
26 | < 25 | CC1CN(c2cccc3ncnn23)CCC12O[C@@H]1CC[C@@H](c3ccccc3)N1C2=O (stereo partly drawn) [Example 4.244, (4R,5′S,7a′R)-3-methyl-5′-phenyl-1-([1,2,4]triazolo[1,5-a]pyridin-5-yl)tetrahydro-3′H-spiro[piperidine-4,2′-pyrrolo[2,1-b] [1,3]oxazol]-3′-one]
27 | 31.4 | COc1cc(-n2ccc(N3CCC4(CC3)O[C@@H]3CC[C@@H](c5ccccc5)N3C4=O)n2)ccn1 [Example 11.6, (5′S,7a′R)-1-[1-(2-methoxypyridin-4-yl)-1H-pyrazol-3-yl]-5′-phenyltetrahydro-3′H-spiro[piperidine-4,2′-pyrrolo[2,1-b][1,3]oxazol]-3′-one]
28 | < 25 | O=C(c1c(F)cc(F)cc1F)N1CCC2(CC1)O[C@@H]1CC[C@@H](c3ccccc3)N1C2=O [Example 5.8, (5′S,7a′R)-5′-phenyl-1-(2,4,6-trifluorobenzene-1-carbonyl)tetrahydro-3′H-spiro[piperidine-4,2′-pyrrolo[2,1-b][1,3]oxazol]-3′-one]

From patent US12180226B2, “Spirotricycle RIPK1 inhibitors and methods of uses thereof” (Merck Sharp & Dohme LLC, priority 2021, dated 2024)
